Holding throughout (type): physicochemical
Series [1] in a line: Polymorph screening with liquid assisted grinding (LAG), XRPD outcome. The protocol:
30 mg of amorphous 5-(3,4-difluorobenzyl)-8-((1r,4r)-4-methylcyclohexyl)-6,9-dioxo-2,5,8-triazaspirol[3.5]nonane-2-carbaldehyde was wetted with solvent (5 μL). Two grinding beads (3 mm diameter) were added and the samples were ground for 2 hours at 500 rpm using a planetary Fritsch Mill (Pulverisette 6). After grinding all solids were analysed by XRPD.
Gums were stored at ambient conditions. Gums and samples containing brittle material were dried in-vacuo at R. T. in a vacuum oven overnight (ca. 200 mbar). Observations were recorded and the samples were further dried in-vacuo at R. T. in a vacuum oven overnight (ca. 5 mbar). Where gums still persisted, the samples were further dried in-vacuo at R. T. in a vacuum oven (ca. 5 mbar) for 3 days. The observations and XRPD analysis are provided in Table 5-G. Further treatment details of gums and brittle materials are summarized in Table 5-H.

Series [2] can be described thus: Short-term static storage stability of the solid (XRPD, HPLC). Here is the method:
Purity analysis was performed on an Agilent HP1100/Infinity 111260 series system equipped with a diode array detector and using OpenLAB software. The full method details are provided below.
For short-term (8 days or fewer) stability experiments, solid material was placed into open vials at elevated storage conditions, unless otherwise stated. These conditions were achieved using saturated salt solutions at specific temperatures within sealed containers. Storage containers were pre-equilibrated prior to input of samples.

Series [3] is described as follows: Competitive slurry experiments between Form I and Form II. As to conditions: competitive slurry. The source says: The results of the competitive slurry experiments are provided below in Table 6.
Where [4] appears, read: Storage at 40° C./75% RH for 7 days.

As for `C[C@H]1CC[C@H](N2CC(=O)N(Cc3ccc(F)c(F)c3)C3(CN(C=O)C3)C2=O)CC1`, the XRPD entry is “Form II” in series [1] (LAG gum/brittle material after drying in-vacuo, solvent EtOH/water 97:3 v/v); “Form II” in series [1] (LAG of amorphous material, solvent 1,4-dioxane/water 99:1 v/v); “Form I” in series [1] (LAG of amorphous material, solvent 1-PrOH/water 98:2 v/v); “Form II” in series [1] (LAG of amorphous material, solvent 15% v/v water in 1-PrOH); “Form II” in series [1] (LAG of amorphous material, solvent 15% v/v water in 2-PrOH); “Form I” in series [1] (LAG of amorphous material, solvent 15% v/v water in DMSO). The XRPD result was “Form II” in series [1] (LAG of amorphous material, solvent 15% v/v water in EtOH); “Form II” in series [1] (LAG of amorphous material, solvent 15% v/v water in MeOH); “Form I” in series [1] (LAG of amorphous material, solvent 15% v/v water in acetone); “Form II” in series [1] (LAG of amorphous material, solvent 50% v/v water in 1-PrOH); “Form I” in series [1] (LAG of amorphous material, solvent 50% v/v water in DMSO); “Form I” in series [1] (LAG of amorphous material, solvent 50% v/v water in EtOH). For the same molecule, the XRPD entry is listed as “Amorphous” in series [1] (LAG of amorphous material, solvent 50% v/v water in acetone); “Form I” in series [1] (LAG of amorphous material, solvent 80% v/v water in 2-BuOH); “Form I” in series [1] (LAG of amorphous material, solvent 85% v/v water in 2-PrOH); “Amorphous” in series [1] (LAG of amorphous material, solvent 85% v/v water in acetone); “Form I” in series [1] (LAG of amorphous material, solvent 95% v/v water in 2-BuOH); “Form II” in series [1] (LAG of amorphous material, solvent Acetone/water 99:1 v/v). Further, the XRPD entry in series [1] (LAG of amorphous material, solvent Acetonitrile/water 1:1 v/v) was “Form II”; in series [1] (LAG of amorphous material, solvent MeOH/water 97:3 v/v), “Form II”.
Consider `C[C@H]1CC[C@H](N2CC(=O)N(Cc3ccc(F)c(F)c3)C3(CN(C=O)C3)C2=O)CC1` [Form I, 5-(3,4-difluorobenzyl)-8-((1r,4r)-4-methylcyclohexyl)-6,9-dioxo-2,5,8-triazaspiro[3.5]nonane-2-carbaldehyde], for which the HPLC purity in series [2] (Before Storage) is listed as 96.3%. Also, the XRPD entry in series [2] (Before Storage) is recorded as “Form I”; in series [2] (Storage at 25° C./97% RH for 7 days), “Unchanged by XRPD”; in series [2] (setting [4]), “Unchanged by XRPD”.
With `C1COCCO1.C[C@H]1CC[C@H](N2CC(=O)N(Cc3ccc(F)c(F)c3)C3(CN(C=O)C3)C2=O)CC1` [Form III, 5-(3,4-difluorobenzyl)-8-((1r,4r)-4-methylcyclohexyl)-6,9-dioxo-2,5,8-triazaspiro[3.5]nonane-2-carbaldehyde 1,4-dioxane solvate], in series [2] (setting [4]), the XRPD result is recorded as “converted to crystalline Form II”.
Take `C[C@H]1CC[C@H](N2CC(=O)N(Cc3ccc(F)c(F)c3)C3(CN(C=O)C3)C2=O)CC1` [Forms I and II]: the XRPD result in series [3] (EtOAc, 5 °C) was “Form II”; in series [3] (EtOAc/cyclohexane (50:50 v/v), 5 °C), “Form II”; in series [3] (EtOAc/cyclohexane (50:50 v/v), 50 °C), “Form II”; in series [3] (EtOAc/cyclohexane (85:15 v/v), 5 °C), “Form II”; in series [3] (EtOAc/cyclohexane (85:15 v/v), 50 °C) it was “Form II”; in series [3] (EtOH, 5 °C) it was “Form II”. Also, the XRPD result in series [3] (EtOH, 50 °C) is reported as “Form II”; in series [3] (EtOH/water (15/85 v/v), 50 °C), “Form II”; in series [3] (EtOH/water (85:15 v/v), 50 °C) it was “Form II”; in series [3] (MIBK, 5 °C), “Form II”; in series [3] (MIBK, 50 °C) it was “Form II”; in series [3] (Toluene, 50 °C), “Form II”. Besides, the XRPD entry was “Form II” in series [3] (acetonitrile, 5 °C) and “Form II” in series [3] (acetonitrile, 50 °C).

The values are drawn from US20240132498A1, “CRYSTALLINE FORMS OF 5-(3,4-DIFLUOROBENZYL)-8-((1R,4R)-4-METHYLCYCLOHEXYL)-6,9-DIOXO-2,5,8-TRIAZASPIRO[3.5]NONANE-2-CARBALDEHYDE” (Cytokinetics, Incorporated, priority 2022, published 2024).
